Laboratory results: ChEMBL document CHEMBL3885881, “DrugMatrix”

Organism: Rattus norvegicus
Assay: DrugMatrix - Regimen: Daily Repeat
Type: toxicity, organism-based, Sprague-Dawley
Design: regimen Daily Repeat, gender Male, age 6-8 weeks
Conditions: in vivo, sc, 0 mg/kg, route mini-PUMP - SUBCUTANEOUS, dose level Control, vehicle 100 % SALINE; for ABSOLUTE BASOPHIL / ABSOLUTE EOSINOPHIL / ABSOLUTE LYMPHOCYTE / ABSOLUTE MONOCYTE / ABSOLUTE SEGMENTED NEUTROPHIL / BASOPHIL / EOSINOPHIL / ERYTHROCYTE COUNT / HEMATOCRIT / HEMOGLOBIN / LEUKOCYTE COUNT / LYMPHOCYTE / MEAN CORPUSCULAR HEMOGLOBIN / MEAN CORPUSCULAR HEMOGLOBIN CONCENTRATION / MEAN CORPUSCULAR VOLUME / MONOCYTE / NEUTROPHIL / NUCLEATED RED BLOOD CELLS / PLATELET COUNT: tissue Blood; for ALANINE AMINOTRANSFERASE / ALBUMIN / ALKALINE PHOSPHATASE / ASPARTATE AMINOTRANSFERASE / BLOOD UREA NITROGEN / CARBON DIOXIDE / CHLORIDE / CHOLESTEROL / CREATININE / GLUCOSE / LACTATE DEHYDROGENASE / LIPASE / PHOSPHORUS / POTASSIUM / SODIUM / TOTAL BILIRUBIN / TOTAL PROTEIN / URIC ACID: tissue Plasma

## CNC[C@H](O)c1cccc(O)c1 [PHENYLEPHRINE]
72 h, time 3 day
  ABSOLUTE BASOPHIL: 0 CELLS/uL
  ABSOLUTE EOSINOPHIL: 77.17 CELLS/uL
  ABSOLUTE LYMPHOCYTE: 14293.83 CELLS/uL
  ABSOLUTE MONOCYTE: 354 CELLS/uL
  ABSOLUTE SEGMENTED NEUTROPHIL: 1658.33 CELLS/uL
  BASOPHIL: 0%
  EOSINOPHIL: 0.5%
  ERYTHROCYTE COUNT: 6.27 x10E6/uL
  HEMATOCRIT: 36.95%
  HEMOGLOBIN: 13.4 G/DL
  LEUKOCYTE COUNT: 16.38 x10E3/uL
  LYMPHOCYTE: 87.17%
  MEAN CORPUSCULAR HEMOGLOBIN: 21.42 pg
  MEAN CORPUSCULAR HEMOGLOBIN CONCENTRATION: 36.27 G/DL
  MEAN CORPUSCULAR VOLUME: 59.03 fL
  MONOCYTE: 2%
  NEUTROPHIL: 10.33%
  NUCLEATED RED BLOOD CELLS: 0 /100WBC
  PLATELET COUNT: 904.67 x10E3/uL
  ALANINE AMINOTRANSFERASE: 48.33 u/L
  ALBUMIN: 3.82 G/DL
  ALKALINE PHOSPHATASE: 282.33 u/L
  ASPARTATE AMINOTRANSFERASE: 86.83 u/L
  BLOOD UREA NITROGEN: 20.17 mg/dL
  CARBON DIOXIDE: 34.67 mmol/L
  CHLORIDE: 102 MEQ/L
  CHOLESTEROL: 71.5 mg/dL
  CREATININE: 0.2 mg/dL
  GLUCOSE: 136.83 mg/dL
  LACTATE DEHYDROGENASE: 159 u/L
  LIPASE: 9 u/L
  PHOSPHORUS: 10.12 mg/dL
  POTASSIUM: 5.92 MEQ/L
  SODIUM: 147.8 MEQ/L
  TOTAL BILIRUBIN: 0.2 mg/dL
  TOTAL PROTEIN: 6.05 G/DL
  URIC ACID: 1.4 mg/dL
120 h, time 5 day
  ABSOLUTE BASOPHIL: 0 CELLS/uL
  ABSOLUTE EOSINOPHIL: 0 CELLS/uL
  ABSOLUTE LYMPHOCYTE: 14257.33 CELLS/uL
  ABSOLUTE MONOCYTE: 326 CELLS/uL
  ABSOLUTE SEGMENTED NEUTROPHIL: 3216.67 CELLS/uL
  BASOPHIL: 0%
  EOSINOPHIL: 0%
  ERYTHROCYTE COUNT: 6.11 x10E6/uL
  HEMATOCRIT: 36.22%
  HEMOGLOBIN: 13.18 G/DL
  LEUKOCYTE COUNT: 17.8 x10E3/uL
  LYMPHOCYTE: 80.5%
  MEAN CORPUSCULAR HEMOGLOBIN: 21.62 pg
  MEAN CORPUSCULAR HEMOGLOBIN CONCENTRATION: 36.42 G/DL
  MEAN CORPUSCULAR VOLUME: 59.37 fL
  MONOCYTE: 1.83%
  NEUTROPHIL: 17.67%
  NUCLEATED RED BLOOD CELLS: 0 /100WBC
  PLATELET COUNT: 1311 x10E3/uL
  ALANINE AMINOTRANSFERASE: 47 u/L
  ALBUMIN: 3.83 G/DL
  ALKALINE PHOSPHATASE: 260.33 u/L
  ASPARTATE AMINOTRANSFERASE: 76.17 u/L
  BLOOD UREA NITROGEN: 14.67 mg/dL
  CARBON DIOXIDE: 31.33 mmol/L
  CHLORIDE: 101.17 MEQ/L
  CHOLESTEROL: 75 mg/dL
  CREATININE: 0.16 mg/dL
  GLUCOSE: 152.67 mg/dL
  LACTATE DEHYDROGENASE: 147.33 u/L
  LIPASE: 9.33 u/L
  PHOSPHORUS: 10.97 mg/dL
  POTASSIUM: 6 MEQ/L
  SODIUM: 145.52 MEQ/L
  TOTAL BILIRUBIN: 0.17 mg/dL
  TOTAL PROTEIN: 5.83 G/DL
  URIC ACID: 1.27 mg/dL
[…], time 14 day
  ABSOLUTE BASOPHIL: 0 CELLS/uL
  ABSOLUTE EOSINOPHIL: 64.5 CELLS/uL
  ABSOLUTE LYMPHOCYTE: 12507.83 CELLS/uL
  ABSOLUTE MONOCYTE: 380.33 CELLS/uL
  ABSOLUTE SEGMENTED NEUTROPHIL: 2414 CELLS/uL
  BASOPHIL: 0%
  EOSINOPHIL: 0.5%
  ERYTHROCYTE COUNT: 6.1 x10E6/uL
  HEMATOCRIT: 35.4%
  HEMOGLOBIN: 12.88 G/DL
  LEUKOCYTE COUNT: 15.37 x10E3/uL
  LYMPHOCYTE: 80.83%
  MEAN CORPUSCULAR HEMOGLOBIN: 21.18 pg
  MEAN CORPUSCULAR HEMOGLOBIN CONCENTRATION: 36.43 G/DL
  MEAN CORPUSCULAR VOLUME: 58.17 fL
  MONOCYTE: 2.17%
  NEUTROPHIL: 16.5%
  NUCLEATED RED BLOOD CELLS: 0.17 /100WBC
  PLATELET COUNT: 1016 x10E3/uL
  ALANINE AMINOTRANSFERASE: 53.33 u/L
  ALBUMIN: 3.93 G/DL
  ALKALINE PHOSPHATASE: 319.83 u/L
  ASPARTATE AMINOTRANSFERASE: 84 u/L
  BLOOD UREA NITROGEN: 15.5 mg/dL
  CARBON DIOXIDE: 34 mmol/L
  CHLORIDE: 101.83 MEQ/L
  CHOLESTEROL: 57 mg/dL
  CREATININE: 0.21 mg/dL
  GLUCOSE: 182.33 mg/dL
  LACTATE DEHYDROGENASE: 104.67 u/L
  LIPASE: 9.17 u/L
  PHOSPHORUS: 11.12 mg/dL
  POTASSIUM: 5.81 MEQ/L
  SODIUM: 144.85 MEQ/L
  TOTAL BILIRUBIN: 0.18 mg/dL
  TOTAL PROTEIN: 5.92 G/DL
  URIC ACID: 1.38 mg/dL
